Measured values from ChEMBL document CHEMBL5252549, “Recent developments on synthesis and biological activities of γ-carboline” (Eur J Med Chem, 2018).
In brackets after ≈: the same amount, converted by molar mass. Counter-ions that a name gives are not always drawn. Blank lines part the entries; values can stand above or below the compound they belong to.

Experiments:
[1] = Selectivity index, ratio of CC50 for cytotoxicity against MDBK cells to EC50 for antiviral activity against bovine viral diarrhea virus 1 infected in MDBK cells; type: toxicity, cell-based; conditions: cattle, read-out: Ratio CC50/EC50
[2] = tested on: Bovine viral diarrhea virus 1; test: Antiviral activity against bovine viral diarrhea virus 1 infected in MDBK cells assessed as reduction in viral replication-induced cell destruction incubated for 3 days; type: functional, organism-based; conditions: Bovine viral diarrhea virus isolates and strains, 72 h
[3] = biological target: T1, Glutamate receptor ionotropic, NMDA 2B (Homo sapiens, UniProt Q05586+Q13224); test: Displacement of [3H]MK801 from NMDA receptor NR2B subunit (unknown origin)
T1 sequence (Q13224 whole entry, one chain of several): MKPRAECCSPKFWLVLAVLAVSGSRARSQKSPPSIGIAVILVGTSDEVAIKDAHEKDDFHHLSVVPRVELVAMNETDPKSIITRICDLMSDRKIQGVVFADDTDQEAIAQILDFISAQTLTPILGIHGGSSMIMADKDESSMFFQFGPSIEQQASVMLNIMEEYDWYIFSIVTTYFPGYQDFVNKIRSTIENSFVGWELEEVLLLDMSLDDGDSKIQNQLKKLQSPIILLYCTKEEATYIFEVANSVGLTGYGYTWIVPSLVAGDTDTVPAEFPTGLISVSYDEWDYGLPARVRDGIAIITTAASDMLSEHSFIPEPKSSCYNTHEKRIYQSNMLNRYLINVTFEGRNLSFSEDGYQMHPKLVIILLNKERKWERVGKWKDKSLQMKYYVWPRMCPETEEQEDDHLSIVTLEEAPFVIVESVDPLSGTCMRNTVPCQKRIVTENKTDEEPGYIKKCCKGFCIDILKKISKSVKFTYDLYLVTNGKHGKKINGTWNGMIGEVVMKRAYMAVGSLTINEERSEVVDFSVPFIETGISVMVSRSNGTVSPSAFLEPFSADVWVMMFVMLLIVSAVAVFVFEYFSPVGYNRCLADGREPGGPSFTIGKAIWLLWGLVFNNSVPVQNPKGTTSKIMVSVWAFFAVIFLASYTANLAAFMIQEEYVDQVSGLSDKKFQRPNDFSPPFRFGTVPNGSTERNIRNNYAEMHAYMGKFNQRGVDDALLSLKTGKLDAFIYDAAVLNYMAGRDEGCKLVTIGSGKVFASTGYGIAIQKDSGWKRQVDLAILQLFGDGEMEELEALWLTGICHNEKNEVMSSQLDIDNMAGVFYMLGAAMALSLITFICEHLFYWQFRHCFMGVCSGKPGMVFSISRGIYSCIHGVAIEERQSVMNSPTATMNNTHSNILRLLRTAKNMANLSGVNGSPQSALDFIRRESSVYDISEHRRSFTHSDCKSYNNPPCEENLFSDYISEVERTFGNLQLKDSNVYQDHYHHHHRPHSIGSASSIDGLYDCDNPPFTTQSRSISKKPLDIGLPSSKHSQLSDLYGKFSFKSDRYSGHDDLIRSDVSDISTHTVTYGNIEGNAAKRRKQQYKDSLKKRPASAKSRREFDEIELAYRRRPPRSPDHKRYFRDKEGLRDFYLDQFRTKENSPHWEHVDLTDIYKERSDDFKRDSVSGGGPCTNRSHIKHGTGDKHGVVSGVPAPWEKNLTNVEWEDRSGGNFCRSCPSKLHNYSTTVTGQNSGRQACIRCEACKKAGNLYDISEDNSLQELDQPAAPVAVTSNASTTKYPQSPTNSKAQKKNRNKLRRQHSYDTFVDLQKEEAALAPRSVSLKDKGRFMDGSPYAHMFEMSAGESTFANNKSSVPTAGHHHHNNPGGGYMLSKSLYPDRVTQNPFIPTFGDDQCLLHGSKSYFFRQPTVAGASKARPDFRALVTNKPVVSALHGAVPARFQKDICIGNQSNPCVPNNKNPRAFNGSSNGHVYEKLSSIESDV

[4] = biological target: T1, Glutamate receptor ionotropic, NMDA 2B; test: Displacement of [3H]ifenprodyl from NMDA receptor NR2B subunit (unknown origin)
Cholinesterase [5] = biological target: Cholinesterase (Homo sapiens, UniProt P06276); test: Inhibition of BChE (unknown origin)
Sequence of Cholinesterase (Homo sapiens, UniProt P06276) (P06276 whole entry): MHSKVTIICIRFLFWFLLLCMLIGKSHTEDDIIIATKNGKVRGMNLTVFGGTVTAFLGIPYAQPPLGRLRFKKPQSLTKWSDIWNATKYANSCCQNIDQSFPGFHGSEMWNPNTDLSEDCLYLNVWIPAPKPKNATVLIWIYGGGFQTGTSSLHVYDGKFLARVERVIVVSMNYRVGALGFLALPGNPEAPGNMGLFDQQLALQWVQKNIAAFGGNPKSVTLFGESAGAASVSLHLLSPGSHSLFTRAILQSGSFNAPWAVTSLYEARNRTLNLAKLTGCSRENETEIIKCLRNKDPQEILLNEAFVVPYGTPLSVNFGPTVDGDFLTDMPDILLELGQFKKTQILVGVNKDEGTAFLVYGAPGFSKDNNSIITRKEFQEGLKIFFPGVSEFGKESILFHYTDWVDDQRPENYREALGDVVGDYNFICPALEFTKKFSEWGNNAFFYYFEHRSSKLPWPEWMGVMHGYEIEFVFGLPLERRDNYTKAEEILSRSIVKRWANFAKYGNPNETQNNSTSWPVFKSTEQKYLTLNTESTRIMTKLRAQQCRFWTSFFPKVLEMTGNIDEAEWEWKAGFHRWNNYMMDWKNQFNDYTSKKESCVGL

[6] = biological target: Glutamate [NMDA] receptor; test: Displacement of [3H]ifenprodyl from NMDA receptor (unknown origin); type: protein-complex assay, Homo sapiens
Acetylcholinesterase = Acetylcholinesterase (Homo sapiens, UniProt P22303); test: Inhibition of human erythrocyte AChE incubated for 10 mins by Ellman's method; type: cell-based
Sequence of Acetylcholinesterase (P22303 whole entry): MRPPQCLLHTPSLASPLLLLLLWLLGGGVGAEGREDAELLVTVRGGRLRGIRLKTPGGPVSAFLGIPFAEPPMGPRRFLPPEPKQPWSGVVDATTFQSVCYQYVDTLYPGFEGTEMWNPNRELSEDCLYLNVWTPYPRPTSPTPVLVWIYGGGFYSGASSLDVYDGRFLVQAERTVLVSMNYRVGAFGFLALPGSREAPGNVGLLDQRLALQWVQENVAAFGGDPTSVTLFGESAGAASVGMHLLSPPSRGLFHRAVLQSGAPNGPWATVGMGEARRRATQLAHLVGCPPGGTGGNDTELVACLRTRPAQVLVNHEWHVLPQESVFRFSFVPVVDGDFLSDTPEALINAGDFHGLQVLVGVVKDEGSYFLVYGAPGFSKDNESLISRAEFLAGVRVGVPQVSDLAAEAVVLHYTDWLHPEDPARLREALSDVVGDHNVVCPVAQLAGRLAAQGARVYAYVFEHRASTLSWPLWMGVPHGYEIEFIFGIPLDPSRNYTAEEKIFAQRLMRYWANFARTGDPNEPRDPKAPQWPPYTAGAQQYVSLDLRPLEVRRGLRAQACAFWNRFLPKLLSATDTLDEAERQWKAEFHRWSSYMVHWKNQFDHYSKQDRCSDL

Cholinesterase [7] = biological target: Cholinesterase (Equus caballus, UniProt P81908); test: Inhibition of horse serum BChE incubated for 10 mins by Ellman's method; type: cell-free
Sequence of Cholinesterase (Equus caballus, UniProt P81908) (P81908 whole entry): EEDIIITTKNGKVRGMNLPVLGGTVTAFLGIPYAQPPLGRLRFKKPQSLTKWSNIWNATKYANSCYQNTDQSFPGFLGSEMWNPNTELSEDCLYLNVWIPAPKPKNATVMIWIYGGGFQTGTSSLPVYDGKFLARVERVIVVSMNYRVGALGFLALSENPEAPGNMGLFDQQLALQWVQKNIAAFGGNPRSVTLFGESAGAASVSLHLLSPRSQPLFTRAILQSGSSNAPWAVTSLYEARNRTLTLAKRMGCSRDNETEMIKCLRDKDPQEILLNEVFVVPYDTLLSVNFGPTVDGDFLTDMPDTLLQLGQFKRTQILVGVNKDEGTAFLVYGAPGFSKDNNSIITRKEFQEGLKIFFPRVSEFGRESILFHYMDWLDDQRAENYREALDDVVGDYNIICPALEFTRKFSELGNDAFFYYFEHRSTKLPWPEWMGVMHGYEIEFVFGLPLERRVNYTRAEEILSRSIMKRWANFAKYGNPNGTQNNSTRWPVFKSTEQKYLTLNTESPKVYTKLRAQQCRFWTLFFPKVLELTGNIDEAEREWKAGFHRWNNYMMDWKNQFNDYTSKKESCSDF

L5178Y = test: Cytotoxicity against mouse L5178Y cells; type: functional, cell-based
Escherichia coli = test: Antibacterial activity against Escherichia coli assessed as inhibition of bacterial growth incubated for 24 hrs by agar diffusion assay; type: functional, organism-based

SMILES: c1ccc2c(c1)[nH]c1ccncc12
selectivity ratio [1]: 20

EC50 [2]: 0.0035 µM
SMILES: Cc1ncc2c3ccccc3n(C)c2c1C
selectivity ratio [1]: 2060

IC50 [3]: 15.8 µM
IC50 [4]: 8.8 µM
SMILES: CCN1CCc2c(c3cc(F)ccc3n2CCC(=O)N2c3ccccc3Sc3ccccc32)C1

IC50 [3]: 14.6 µM
IC50 [4]: 13.4 µM
SMILES: CCN1CCc2c(c3ccccc3n2CCC(=O)N2c3ccccc3Sc3ccccc32)C1

SMILES: Cc1ccc2c(c1)c1c(n2CC(O)Cn2c3c(c4ccccc42)CCCC3)CCN(C)C1 (stereo unspecified)
IC50 (Cholinesterase [5]): 3.9 µM

SMILES: CN1CCc2c(c3cc(F)ccc3n2CC(O)Cn2c3c(c4ccccc42)CCCC3)C1 (stereo unspecified)
IC50 (Cholinesterase [5]): 5.03 µM

SMILES: CCN1CCc2c(c3cc(C)ccc3n2CC(O)Cn2c3c(c4ccccc42)CCCC3)C1 (stereo unspecified)
IC50 (Cholinesterase [5]): 5.23 µM

IC50 [6]: 11.7 µM
SMILES: Cc1ccc2c(c1)c1c(n2CC(O)Cn2c3ccccc3c3ccccc32)CCN(C)C1 (stereo unspecified)

IC50 [3]: 13.2 µM
IC50 [4]: 15.4 µM
SMILES: CCc1ccc2c(c1)c1c(n2CCC(=O)N2c3ccccc3Sc3ccccc32)CCN(C)C1

IC50 [4]: 39.5 µM
SMILES: CCN1CCc2c(c3cc(C)ccc3n2-c2c(C(F)(F)F)nc3ccccn23)C1

IC50 [6]: 12.5 µM
SMILES: CCN1CCc2c(c3cc(C)ccc3n2CC(O)Cn2c3ccccc3c3ccccc32)C1 (stereo unspecified)

SMILES: CN1CCc2c(c3ccccc3n2CC(O)Cn2c3c(c4ccccc42)CCCC3)C1 (stereo unspecified)
IC50 (Cholinesterase [5]): 1.06 µM

IC50 [4]: 32.6 µM
SMILES: Cc1ccc2c(c1)c1c(n2CCC(=O)N(C)c2c(C(F)(F)F)nc3cc(C)ccn23)CCN(C)C1

SMILES: CCN1CCc2c(c3cc(F)ccc3n2CC(O)Cn2c3c(c4ccccc42)CCCC3)C1 (stereo unspecified)
IC50 (Cholinesterase [5]): 5.83 µM

SMILES: CN1CCc2c(c3ccccc3n2Cc2ccccc2C(=O)NCCO[N+](=O)[O-])C1
IC50 (Acetylcholinesterase): 14.8 µM
IC50 (Cholinesterase [7]): 3.68 µM

SMILES: COc1ccc2c(c1)c1c(n2CC(O)CN2c3ccccc3Sc3ccccc32)CCN(C)C1 (stereo unspecified)
IC50 (Cholinesterase [5]): 0.39 µM

SMILES: Nc1nccc(-c2cncc3c2[nH]c2ccccc23)n1
EC50 (L5178Y): 9.1 µg/mL (≈ 34.8 µM)

SMILES: CCN1CCc2c(c3ccccc3n2CC(O)Cn2c3c(c4ccccc42)CCCC3)C1 (stereo unspecified)
IC50 (Cholinesterase [5]): 2.77 µM

SMILES: Cn1cc2c3ccccc3n(C)c2c(Cc2ccccc2Cl)c1=O
IC50 (Escherichia coli): 17 µM

IC50 [4]: 82.4 µM
SMILES: Cc1ccc2c(c1)c1c(n2CCc2ccc(C)nc2)CCN(C)C1 [LATREPIRDINE]

SMILES: CN(C)[C@@H]1C(O)=C(C(N)=O)C(=O)[C@@]2(O)C(O)=C3C(=O)c4c(O)cccc4[C@@](C)(O)[C@H]3C[C@@H]12 [TETRACYCLINE HYDROCHLORIDE]
IC50 (Escherichia coli): 30 µM
